pEC50: −log10 of the molar value. Read-outs that look alike come from different tables or passages of the source.
Legend:
[1] = target: GAL4 DBD-CfEcR(DEF)/VP16AD-MmRXRE (Choristoneura fumiferana, UniProt O77240); assay: 13B3 Assay (CHO stable cell line, luciferase reporter); conditions: for 13B3 assay Rel Max FI: maximum fold induction at any concentration relative to that of GS-E ligand, CHO 13B3 cells; for fold induction at 3.3 µM: read-out: Fold Induction, 13B3 Assay, 3.3 uM; for fold induction at 33 µM: read-out: Fold Induction, 13B3 Assay, 33 uM; for Fold Induction, 13B3 Assay, 3.3 uM: 3.3 uM ligand; for Fold Induction, 13B3 Assay, 3.3 uM / Fold Induction, 13B3 Assay, 33 uM: RLU ligand treated / RLU DMSO treated cells; for Fold Induction, 13B3 Assay, 33 uM: 33 uM ligand
Summary of the method: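 CHO 13B3 clone stably expressing GAL4 DBD–CfEcR(DEF) and VP16AD–MmRXR(DE) with GAL4 RE–luciferase reporter; cells plated 24 h at 37 °C, then treated with ligands (DMSO stocks diluted 300-fold), 8 concentrations 33–0.01 μM.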

[2] = target: GAL4 DBD (1-147)-CfEcR(DEF)/VP16AD-βRXREF-LmUSPEF (Choristoneura fumiferana, UniProt O77240); assay: cell-based; conditions: for 27-63 assay Rel Max FI: maximum fold induction at any concentration relative to that of GS-E ligand, CHO 27-63 cells; for fold induction at 3.3 µM: read-out: Fold Induction, 27-63 Assay, 3.3 uM; for fold induction at 33 µM: read-out: Fold Induction, 27-63 Assay, 33 uM; for Fold Induction, 27-63 Assay, 3.3 uM: 3.3 uM ligand; for Fold Induction, 27-63 Assay, 3.3 uM / Fold Induction, 27-63 Assay, 33 uM: RLU ligand treated / RLU DMSO treated cells; for Fold Induction, 27-63 Assay, 33 uM: 33 uM ligand
[3] = read-out: 13B3 EC50, CHO 13B3 stable cell line, luciferase reporter, 48 h, average of two wells
[4] = read-out: 27-63 assay EC50, CHO 27-63 stable cell line, luciferase reporter, average of two wells

Compound | pEC50 [1] | 13B3 assay Rel Max FI [1] | fold induction at 3.3 µM [1] | fold induction at 33 µM [1] | pEC50 [2] | 27-63 assay Rel Max FI [2] | fold induction at 3.3 µM [2] | fold induction at 33 µM [2] | Fold Induction, 13B3 Assay, 3.3 uM ([1]; average of two wells) | Fold Induction, 13B3 Assay, 33 uM ([1]; average of two wells) | pEC50 [1, 3] | Fold Induction, 27-63 Assay, 3.3 uM ([2]; average of two wells) | Fold Induction, 27-63 Assay, 33 uM ([2]; average of two wells) | pEC50 [2, 4]
CCc1c(C(=O)NN(C(=O)c2cc(C)cc(Cl)c2)C(C)(C)C)ccc2c1OCCO2 [RG-101494, N-(5-ethyl-1,4-benzodioxan-6-carbonyl)-N′-(tert-butyl)-N′-(3-chloro-5-methylbenzoyl)hydrazine] | 6.83 | 0.822 | 755 | 613 | 7.44 | 0.916 | 717 | 294 |  |  |  |  |  | 
CCc1c(C(=O)NN(C(=O)c2cc(OC)c(C)c(OC)c2)C(C)(C)C)ccc2c1OCCO2 [RG-115130] |  |  |  |  |  | 1.375 |  |  | 987 | 511 | 6.29 | 4436 | 4096 | 7.03
CCc1c(OC)cccc1C(=O)NN(C(=O)c1cc(C)cc(C)c1)C(C)(C)CO[Si](C)(C)C(C)(C)C [RG-115665, 2-ethyl-3-methoxy-benzoic acid N′-[2-(tert-butyl-dimethyl-silanyloxy)-1,1-dimethyl-ethyl]-N′-(3,5-dimethyl-benzoyl)-hydrazide] | < 4.30 | 0 | 1 |  | 5.26 | 0.01 | 2 |  |  |  |  |  |  | 
CCc1c(OC)cccc1C(=O)NN(C(=O)c1cc(C)cc(C)c1)C(C)(C)C=NO [RG-115258, 2-ethyl-3-methoxy-benzoic acid N′-(3,5-dimethyl-benzoyl)-N′-(2-hydroxyimino-1,1-dimethyl-ethyl)-hydrazide] | 4.57 | 1.334 | 144 | 3740 | 5.73 | 1.279 | 1970 | 2210 |  |  |  |  |  | 
COc1cc(C)cc(C(=O)N(NC(=O)c2cccc(OC)c2C)C(C)(C)C)c1 [RG-100767] |  | 0.920 |  |  |  | 1.218 |  |  | 4504 | 682 | 5.98 | 2097 | 2171 | 6.48
Cc1cc(C)cc(C(=O)N(NC(=O)c2ccc3c(c2C)OCCO3)C(C)(C)C)c1 [RG-102317, N-(5-methyl-1,4-benzodioxan-6-carbonyl)-N′-(tert-butyl)-N′-(3,5-dimethylbenzoyl)hydrazine] | 6.46 |  | 2420 | 814 | 6.99 | 0.948 | 2550 | 2500 |  |  |  |  |  | 
CCc1c(OC)cccc1C(=O)NN(C(=O)c1cc(Cl)ccc1OC)C(C)(C)C [RG-115253] |  |  |  |  |  | 0.742 |  |  |  | 471 |  | 848 | 910 | 6.97
CCc1c(C(=O)NN(C(=O)c2ccccc2OC)C(C)(C)C)ccc2c1OCOC2 [RG-115065] |  |  |  |  |  | 0.746 |  |  |  | 880 |  | 859 | 1095 | 5.52
CCc1c(C(=O)NN(C(=O)c2ccc(Cl)cc2F)C(C)(C)C)ccc2c1OCCO2 [RG-115514] |  | 0.550 |  |  |  | 0.720 |  |  | 4009 | 515 | 6.27 | 1616 | 1427 | 6.77
Cc1c(C(=O)NN(C(=O)c2cc(F)c(F)cc2F)C(C)(C)C)ccc2c1CCCO2 [RG-115229] |  | 0.418 |  |  |  | 0.735 |  |  | 599 | 709 | 5.65 | 2829 | 1423 | 5.94
CCc1c(OC)cccc1C(=O)NN(C(=O)c1ccccc1OC)C(C)(C)C [RG-100725] |  |  |  |  |  | 0.726 |  |  |  | 581 |  | 1096 | 1050 | 6.48
Cc1c(C(=O)NN(C(=O)c2cccc(F)c2)C(C)(C)C)ccc2c1CCCO2 [RG-115278] |  | 0.823 |  |  |  | 0.720 |  |  | 1950 | 1050 | 6.20 | 1250 | 906 | 6.05
CCc1c(OC)cccc1C(=O)NN(C(=O)c1cc(C)ccc1[N+](=O)[O-])C(C)(C)C [RG-115162] |  | 0.630 |  |  |  | 0.653 |  |  | 755 | 320 | 6.09 | 1814 | 1464 | 6.37
Cc1c(C(=O)NN(C(=O)c2cc(F)c(F)c(F)c2F)C(C)(C)C)ccc2c1CCCO2 [RG-115518] |  | 0.648 |  |  |  | 0.866 |  |  | 1644 | 926 | 5.90 | 1640 | 1126 | 5.98
Cc1ccc([N+](=O)[O-])c(C(=O)N(NC(=O)c2ccc3c(c2C)OCCO3)C(C)(C)C)c1 [RG-115384] |  | 0.426 |  |  |  | 0.645 |  |  | 2753 | 2277 | 6.49 | 1713 | 1282 | 6.95
CCc1c(C(=O)NN(C(=O)c2ccccc2OC)C(C)(C)C)ccc2c1OCCO2 [RG-115244] |  | 0.663 |  |  |  | 0.785 |  |  | 2404 | 573 | 6.43 | 2203 | 1847 | 6.77
COc1ccc(C)cc1C(=O)N(NC(=O)c1cccc(OC)c1C)C(C)(C)C [RG-100766] |  |  |  |  |  | 0.944 |  |  |  | 391 |  | 931 | 1993 | 5.47
CCc1ccc(C(=O)NN(C(=O)c2cc(C)cc(C)c2)C(C)(C)C)c(F)c1 [RG-101523, 3,5-Dimethyl-benzoic acid N-tert-butyl-N′-(4-ethyl-2-fluoro-benzoyl)-hydrazide] | 5.62 | 0.772 | 831 | 718 | 6.78 | 0.943 | 2430 | 2740 |  |  |  |  |  | 
CCc1c(OC)cccc1C(=O)NN(C(=O)c1cc(C)cc(C)c1)C(C)(C)C [RG-102240, N-(3-methoxy-2-ethylbenzoyl)-N′-(3,5-dimethylbenzoyl)-N′-tert-butylhydrazine] | 6.30 | 1 |  |  |  | 1 |  |  |  |  |  |  |  | 

From patent publication US9102648B1, “Bioavailable diacylhydrazine ligands for modulating the expression of exogenous genes via an ecdysone receptor complex” (Intrexon Corporation, priority 2003, dated 2015)
